These are literature values, as cited in patent US4323647A, “Steric hindrance enzyme immunoassay” (University of Miami, priority 1980, dated 1982).

For the data set, the target named is beta-galactosidase isolated from E. coli (Escherichia coli, UniProt P00722). Conditions: potent competitive inhibitor; Lai, et al., Biophys. Res. Comm. 54: 463-468 (1973).
beta-galactosidase isolated from E. coli, sequence (P00722 2-1024 limits assumed): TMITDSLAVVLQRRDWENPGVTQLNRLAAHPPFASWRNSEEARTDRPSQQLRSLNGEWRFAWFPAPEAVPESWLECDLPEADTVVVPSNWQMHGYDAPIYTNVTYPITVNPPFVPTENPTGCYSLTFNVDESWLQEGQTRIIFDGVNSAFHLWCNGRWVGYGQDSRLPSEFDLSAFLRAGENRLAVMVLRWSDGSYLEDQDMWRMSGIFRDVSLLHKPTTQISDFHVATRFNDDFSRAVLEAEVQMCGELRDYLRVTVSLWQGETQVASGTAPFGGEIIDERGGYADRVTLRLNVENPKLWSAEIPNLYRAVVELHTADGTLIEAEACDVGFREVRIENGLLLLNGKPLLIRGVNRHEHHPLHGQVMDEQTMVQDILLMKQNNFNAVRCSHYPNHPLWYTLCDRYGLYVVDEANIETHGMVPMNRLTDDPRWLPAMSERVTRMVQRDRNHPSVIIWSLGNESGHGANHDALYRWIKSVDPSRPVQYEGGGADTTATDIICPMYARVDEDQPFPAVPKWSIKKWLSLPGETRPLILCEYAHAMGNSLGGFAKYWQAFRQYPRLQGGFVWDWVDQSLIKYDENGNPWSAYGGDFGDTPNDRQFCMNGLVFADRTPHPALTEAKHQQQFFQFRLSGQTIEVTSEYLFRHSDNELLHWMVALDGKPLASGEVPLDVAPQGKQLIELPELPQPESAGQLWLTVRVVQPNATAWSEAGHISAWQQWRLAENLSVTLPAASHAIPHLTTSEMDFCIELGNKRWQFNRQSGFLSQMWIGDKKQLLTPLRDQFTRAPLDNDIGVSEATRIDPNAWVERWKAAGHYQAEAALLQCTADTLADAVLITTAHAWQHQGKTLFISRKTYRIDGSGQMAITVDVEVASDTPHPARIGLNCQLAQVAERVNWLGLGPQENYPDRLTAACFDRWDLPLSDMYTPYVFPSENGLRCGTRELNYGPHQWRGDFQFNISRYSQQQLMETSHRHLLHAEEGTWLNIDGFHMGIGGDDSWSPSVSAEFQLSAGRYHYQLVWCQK

As for `N[C@@H]1O[C@H](CO)[C@H](O)[C@H](O)[C@H]1O` [beta-D-galactosylamine], the inhibitory constant (Ki) was 225 µM.
